For data set [1], the system named is Erdman strain of MTB. The data set can be described thus: Effect of surfactants on corded state and number of MTB in vitro (microscopy, acid-fast staining). The class given is cell-based, Mycobacterium tuberculosis. Particulars: for bactericidal action on MTB: 1% (wt/vol.), OG 24 hr, DDM 2 hr.
Data set [2] concerns MTB. In words: Growth of MTB in the presence of surfactant. The class given is cell-based, Mycobacterium tuberculosis. As to conditions: 0.3% surfactant.
For data set [3] the following is noted: mouse, in vivo.
[4] abbreviates: 1% (wt/vol.) surfactant, 30 min exposure.
Where [5] appears, read: 1% (wt/vol.) surfactant, 2 hr exposure.

The record followed here is patent US20100172845A1, “COMPOSITIONS AND METHODS FOR TREATING MYCOBACTERIAL INFECTIONS” (BOARD OF REGENTS OF THE UNIVERSITY OF TEXAS SYSTEM, priority 2007, published 2010).

“Also recorded” adds a separate entry of the source.

`CCCCCCCCO[C@@H]1O[C@H](CO)[C@@H](O)[C@H](O)[C@H]1O` [OG, n-octyl-β-D-glucoside]: in data set [1] (setting [4]), the “number of bacteria in the background (higher power view)” value is listed as “significant loss in the number of bacteria in the background” and the “reversal of aggregation / number of cords of MTB” value was “major reduction in the number of the cords; also recorded: rapidly reversed aggregation of MTB”. Further, the “decrease in the corded state of MTB” value in data set [1] (1% (wt/vol.) surfactant, 24 hr incubation) is “more pronounced”. In addition, the “bacteria eliminated (50× image)” value in data set [1] (1% (wt/vol.) surfactant, within 24 hours of treatment) was “over 90%”. Moreover, the “bactericidal action on MTB” value in data set [1] is “acts as a bacteriocide; also recorded: bactericidal”. For the same compound, the “growth of MTB and mycolic acid coat” value in data set [2] is recorded as “will grow in the presence of 0.3% OG but are not surrounded by their extensive coat of mycolic acid”. In data set [3], the “body weight versus control animals” value is reported as “no difference in the body weight”; the “histological examination of spleens and livers” value was “did not reveal any visible changes”; the “histopathological differences of lung, liver and spleen tissues versus control” value is “no identifiable histopathological differences”; the “leukocyte count and cytologic composition of the lavage fluid” value is recorded as “no change were found”. The “tolerability by the lungs” value in data set [3] is “well tolerated by the lungs”.

As for `CCCCCCCCCCCCO[C@@H]1O[C@H](CO)[C@@H](O[C@H]2O[C@H](CO)[C@@H](O)[C@H](O)[C@H]2O)[C@H](O)[C@H]1O` [DDM, n-dodecyl-β-D-maltoside], in data set [1] (setting [5]), the elimination of bacteria result is recorded as “elimination of most of the bacteria” and the “loss / reduction of cording of MTB” value is reported as “reduce cording to a similar extent of OG after 24 hr exposure; also recorded: rapid loss of cording”. Besides, in data set [1], the “bactericidal action on MTB” value was “bactericidal”. In data set [3], the “body weight versus control animals” value is listed as “no difference in the body weight”; the “histological examination of spleens and livers” value is listed as “did not reveal any visible changes”; the “histopathological differences of lung, liver and spleen tissues versus control” value was “no identifiable histopathological differences”; the “leukocyte count and cytologic composition of the lavage fluid” value is recorded as “no change were found”. For the same compound, in data set [3], the “tolerability by the lungs” value is given as “well tolerated by the lungs”.

`CCCCCCCCCCCCCCCC(=O)OC[C@H](COP(=O)([O-])OCC[N+](C)(C)C)OC(=O)CCCCCCCCCCCCCCC` [DPPC, 1,2-dipalmitoyl-sn-3-glycerophosphoryl choline, reference compound]: the “reversal of cording of corded MTB preparation” value in data set [1] (1% surfactant, over the time period of the study) is “did not reverse cording”.
